Tested on: α-synuclein cytotoxicity in M17-SYNwt cells
Assay: α-synuclein cytotoxicity assay: LDH leakage from paraquat-treated M17-SYNwt neuroblastoma cells;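 also: paraquat at 32 mM co-added with compound, 40 h exposure, LDH activity released into the culture medium measured, references are DMSO-only cells and paraquat plus DMSO cells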
Details: Homo sapiens, Neuroblastoma cell; for Emax: read-out: % Inhib.

| SMILES | EC50 [nM] | Emax [%] |
| --- | --- | --- |
| Cc1ccc(Cc2nsc(N3CCN(C(=O)c4cccc(F)c4)CC3)n2)cc1 [compound 162, 1-(3-flurorbenzoyl)-4-[3-(4-methylbenzyl)-1,2,4-thiadiazol-5-yl]piperazine] | 3400 | 101 |
| COc1ccc(S(=O)(=O)N2CCN(c3nc(Cc4ccc(F)cc4)ns3)CC2)cc1 [compound 74, 1-[4-methoxyphenylsulfonyl]-4-[3-(4-fluorobenzyl)-1,2,4-thiadiazol-5-yl]piperazine] | 0.105 | 44 |
| CC(=O)Nc1ccc(S(=O)(=O)N2CCN(c3nc(Cc4ccc(C)cc4)ns3)CC2C)cc1 (stereo not drawn) [compound 48, 1-[4-acetamidophenylsulfonyl]-4-[3-(4-methylbenzyl)-1,2,4-thiadiazol-5-yl]-2-methylpiperazine] | 8.44 | 91 |
| COc1ccc(CC(=O)N2CCN(c3nc(Cc4ccc(F)cc4)ns3)CC2C)cc1 (stereo not drawn) [compound 4, 1-(4-methoxyphenylacetyl)-4-[3-(4-fluorobenzyl)-1,2,4-thiadiazol-5-yl]-2-methylpiperazine] | 820 | 56 |
| CC1CN(c2nc(Cc3ccc(F)cc3)ns2)CCN1C(=O)Nc1ccccc1C(F)(F)F (stereo not drawn) [compound 18, N-(2-trifluoromethylphenyl)-4-[3-(4-fluorobenzyl)-1,2,4-thiadiazol-5-yl]-2-methylpiperazine-1-carboxamide] |  | 41 |
| COc1ccccc1S(=O)(=O)N1CCN(c2nc(Cc3ccc(F)cc3)ns2)CC1 [compound 195] | 56.7 | 99 |
| CCCCS(=O)(=O)N1CCN(c2nc(Cc3ccc(Cl)cc3)ns2)CC1 [compound 81, 1-(butylsulfonyl)-4-[3-(4-chlorobenzyl)-1,2,4-thiadiazol-5-yl]piperazine] | 350 | 80 |
| CCCCCc1ccc(C(=O)N2CCN(c3nc(Cc4ccc(C)cc4)ns3)CC2C)cc1 (stereo not drawn) [compound 134, 1-(4-pentylbenzoyl)-4-[3-(4-methylbenzyl)-1,2,4-thiadiazol-5-yl]-2-methylpiperazine] | 300 | 75 |
| Cc1ccc(C(=O)N2CCN(c3nc(Cc4ccc(F)cc4)ns3)CC2C)cc1[N+](=O)[O-] (stereo not drawn) [compound 172, 1-(3-nitro-4-methylbenzoyl)-4-[3-(4-fluorobenzyl)-1,2,4-thiadiazol-5-yl]-2-methylpiperazine] |  | 86 |
| CCc1ccc(C(=O)N2CCN(c3nc(Cc4cccc(OC)c4)ns3)CC2C)cc1 (stereo not drawn) [compound 143, 1-(4-ethylbenzoyl)-4-[3-(3-methoxybenzyl)-1,2,4-thiadiazol-5-yl]-2-methylpiperazine] | 560 | 89 |
| O=C(NCCN1CCN(c2nc(Cc3ccc(Cl)cc3)ns2)CC1)c1cccc(F)c1 [compound 100, 3-fluoro-N-{2-[4-[3-(4-chlorobenzyl)-1,2,4-thiadiazol-5-yl]piperazin-1-yl]ethyl}benzamide] | 1790 | 75 |
| O=C(Nc1cccc(F)c1)N1CCN(c2nc(Cc3ccc(F)cc3)ns2)CC1 [compound 9, N-(3-fluorophenyl)-4-[3-(4-fluorobenzyl)-1,2,4-thiadiazol-5-yl]piperazine-1-carboxamide] | 520 | 53 |
| COc1ccc(S(=O)(=O)NCCCNc2nc(Cc3cccc(OC)c3)ns2)cc1 [compound 211, N-[4-methoxyphenylsulfonyl]-N′-[3-(3-methoxybenzyl)-1,2,4-thiadiazol-5-yl]-propane-1,3-diamine] | 367 | 100 |
| COc1ccc(S(=O)(=O)N(C)CCN(C)c2nc(Cc3cccc(OC)c3)ns2)cc1 [compound 215, N′-[4-methoxyphenylsulfonyl]-N-[3-(3-methoxybenzyl)-1,2,4-thiadiazol-5-yl]-N,N′-dimethylethane-1,2-diamine] | 301 | 105 |
| CCc1ccc(C(=O)NCCN2CCN(c3nc(Cc4ccc(F)cc4)ns3)CC2)cc1 [compound 103, 4-ethyl-N-{2-[4-[3-(4-fluorobenzyl)-1,2,4-thiadiazol-5-yl]piperazin-1-yl]ethyl}benzamide] | 2320 | 139 |
| Cc1ccc(Cc2nsc(N3CCN(C(=O)c4ccc5c(c4)OCO5)C(C)C3)n2)cc1 (stereo not drawn) [compound 161, 1-(1,3-benzodioxol-5-ylcarbonyl)-4-[3-(4-methylbenzyl)-1,2,4-thiadiazol-5-yl]-2-methyl + B176piperazine] | 3360 | 101 |
| Cc1ccc(Cc2nsc(N3CCN(S(=O)(=O)c4c(C)cc(C)cc4C)C(C)C3)n2)cc1 (stereo not drawn) [compound 45, 1-[2,4,6-trimethylphenylsulfonyl]-4-[3-(4-methylbenzyl)-1,2,4-thiadiazol-5-yl]-2-methylpiperazine] | 1200 | 56 |
| O=C(c1ccc2c(c1)OCO2)N1CCCN(c2nc(Cc3ccc(F)cc3)ns2)CC1 [compound 191, 1-(1,3-benzodioxol-5-ylcarbonyl)-4-[3-(4-fluorobenzyl)-1,2,4-thiadiazol-5-yl]-1,4-diazepane] |  | 63 |
| CC1CN(c2nc(Cc3ccc(Cl)cc3)ns2)CCN1C(=O)c1ccccc1F (stereo not drawn) [compound 167, 1-(2-fluorobenzoyl)-4-[3-(4-chlorobenzyl)-1,2,4-thiadiazol-5-yl]-2-methylpiperazine] |  | 117 |

| SMILES | EC50 [nM] | Emax [%] |
| --- | --- | --- |
| O=C(NCCN1CCN(c2nc(Cc3ccc(F)cc3)ns2)CC1)c1cccc(F)c1 [compound 105, 3-fluoro-N-{2-[4-[3-(4-fluorobenzyl)-1,2,4-thiadiazol-5-yl]piperazin-1-yl]ethyl}benzamide] |  | 115 |
| CC1CN(c2nc(Cc3ccc(F)cc3)ns2)CCN1C(=O)Nc1cccc2ccccc12 (stereo not drawn) [compound 25, N-1-naphtyl-4-[3-(4-fluorobenzyl)-1,2,4-thiadiazol-5-yl]-2-methylpiperazine-1-carboxamide] | 1690 | 97 |
| COc1cccc(Cc2nsc(N3CCN(C(=O)c4ccc(Br)cc4)C(C)C3)n2)c1 (stereo not drawn) [compound 170, 1-(4-bromobenzoyl)-4-[3-(3-methoxybenzyl)-1,2,4-thiadiazol-5-yl]-2-methylpiperazine] |  | 89 |
| CC(C)(C)c1ccc(S(=O)(=O)N2CCN(c3nc(Cc4ccc(Cl)cc4)ns3)CC2)cc1 [compound 69, 1-[4-tert-butylphenylsulfonyl]-4-[3-(4-chlorobenzyl)-1,2,4-thiadiazol-5-yl]piperazine] |  | 31 |
| Cc1ccc(Cc2nsc(N3CCN(C(=O)c4ccc(Br)cc4)CC3)n2)cc1 [compound 164, 1-(4-bromobenzoyl)-4-[3-(4-methylbenzyl)-1,2,4-thiadiazol-5-yl]piperazine] | 3860 | 60 |
| CC(C)(C)c1ccc(C(=O)N2CCN(c3nc(Cc4ccc(F)cc4)ns3)CC2)cc1 [compound 180, 1-(4-tert-butylbenzoyl)-4-[3-(4-fluorobenzyl)-1,2,4-thiadiazol-5-yl]piperazine] |  | 62 |
| Cc1ccc(Cc2nsc(N3CCN(S(=O)(=O)c4ccc(Cl)cc4)CC3)n2)cc1 [compound 66, 1-[4-chlorophenylsulfonyl]-4-[3-(4-methylbenzyl)-1,2,4-thiadiazol-5-yl]piperazine] |  | 81 |
| O=S(=O)(Cc1ccccc1)N1CCN(c2nc(Cc3ccc(Cl)cc3)ns2)CC1 [compound 76, 1-(benzylsulfonyl)-4-[3-(4-chlorobenzyl)-1,2,4-thiadiazol-5-yl]piperazine] |  | 40 |
| Cc1ccccc1C(=O)N1CCN(c2nc(Cc3ccc(F)cc3)ns2)CC1C (stereo not drawn) [compound 140, 1-(2-methylbenzoyl)-4-[3-(4-fluorobenzyl)-1,2,4-thiadiazol-5-yl]-2-methylpiperazine] | 450 | 56 |
| COc1ccc(S(=O)(=O)N2CCN(c3nc(Cc4cccc(OC)c4)ns3)CC2)cc1 [compound 53, 1-[4-methoxyphenylsulfonyl]-4-[3-(3-methoxybenzyl)-1,2,4-thiadiazol-5-yl]piperazine] | 1.4 | 83 |
| CC1CN(c2nc(Cc3ccc(F)cc3)ns2)CCN1C(=O)c1ccccc1Cl (stereo not drawn) [compound 166, 1-(2-chlorobenzoyl)-4-[3-(4-fluorobenzyl)-1,2,4-thiadiazol-5-yl]-2-methylpiperazine] |  | 123 |
| CC1CN(c2nc(Cc3ccc(Cl)cc3)ns2)CCN1S(=O)(=O)c1cccc2ccccc12 (stereo not drawn) [compound 43, 1-[1-naphtylsulfonyl]-4-[3-(4-chlorobenzyl)-1,2,4-thiadiazol-5-yl]-2-methylpiperazine] | 890 | 35 |
| Cc1ccc(Cc2nsc(N3CCN(S(=O)(=O)c4ccc(C)cc4)C(C)C3)n2)cc1 (stereo not drawn) [compound 50, 1-[4-methylphenylsulfonyl]-4-[3-(4-methylbenzyl)-1,2,4-thiadiazol-5-yl]-2-methylpiperazine] |  | 105 |
| O=C(c1cccc(Cl)c1)N1CCN(c2nc(Cc3ccc(F)cc3)ns2)CC1 [compound 138, 1-(3-chlorobenzoyl)-4-[3-(4-fluorobenzyl)-1,2,4-thiadiazol-5-yl]piperazine] | 360 | 81 |
| O=C(Nc1ccc(F)c(F)c1)N1CCN(c2nc(Cc3ccc(F)cc3)ns2)CC1 [compound 28, N-(3,4-difluorophenyl)-4-[3-(4-fluorobenzyl)-1,2,4-thiadiazol-5-yl]piperazine-1-carboxamide] |  | 64 |
| Cc1ccc(Cc2nsc(N3CCN(CCNC(=O)Cc4ccc(F)cc4)CC3)n2)cc1 [compound 109, 2-(4-fluorophenyl)-N-{2-[4-[3-(4-methylbenzyl)-1,2,4-thiadiazol-5-yl]piperazin-1-yl]ethyl}acetamide] | 3520 | 93 |
| CC1CN(c2nc(Cc3ccccc3)ns2)CCN1C(=O)c1cccc(F)c1 (stereo not drawn) [compound 150, 1-(3-fluorobenzoyl)-4-[3-benzyl-1,2,4-thiadiazol-5-yl]-2-methylpiperazine] | 1140 | 99 |
| Cc1ccc(Cc2nsc(N3CCN(S(=O)(=O)c4ccc(F)cc4)CC3)n2)cc1 [compound 57, 1-[4-fluorophenylsulfonyl]-4-[3-(4-methylbenzyl)-1,2,4-thiadiazol-5-yl]piperazine] | 10.4 | 88 |
| Fc1ccc(Cc2nsc(N3CCN(c4ccccc4F)CC3)n2)cc1 [compound 187, 1-(2-fluorophenyl)-4-[3-(4-fluorobenzyl)-1,2,4-thiadiazol-5-yl]piperazine] | 2810 | 83 |

— US7960556B2, “Thiadiazole derivatives for the treatment of neuro-degenerative diseases” (NV reMYND, priority 2006, dated 2011)
